# From patent publication US20080274892A1, “Novel Haloalkylsulfonanilide Derivative, Herbicide, and Method of Use Thereof” (priority 2005, published 2008)
# How the values were obtained:
# bulrush [1] = assay: Test Example 2: herbicidal efficacy on rice paddy weeds post-emergence; format: in vivo, Scirpus juncoides; settings: dosage 1000 g/ha; post-emergence, one leaf stage; 21 days after treatment
# bulrush [2] = assay: Test Example 1: herbicidal efficacy on rice paddy weeds pre-emergence; format: in vivo, Scirpus juncoides; settings: dosage 1000 g/ha, 21 days
# [3] = tested on: paddy rice plant (cultivar: Nihonbare); assay: Test Example 3: phytotoxicity test for transplanted paddy rice plant; format: in vivo; settings: dosage 1000 g/ha; transplanted rice, treated 5 days after transplantation; 21 days after treatment
# Method in brief: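 Clay loam soil was placed in a 75 cm^2 plastic pot and flooded to a water depth of 5 cm. Two Nihonbare paddy rice plants at the two-leaf stage were transplanted 1 cm deep and grown in a hot house. After treatment, pots stayed in the hot house for 21 days, and phytotoxicity was then graded against an untreated control.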
# barnyard glass = assay: Test Example 2: herbicidal efficacy on rice paddy weeds post-emergence; format: in vivo, Echinochloa crus-galli; settings: dosage 1000 g/ha; post-emergence, one leaf stage; 21 days after treatment
# Method in brief: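 Efficacy on paddy weeds was scored on a 0 to 4 growth-inhibition scale: 4 for 90%-100%, 3 for 70%-89%, 2 for 40%-69%, 1 for 1%-39% and 0 for 0%. Barnyard glass was grown in clay loam in 75 cm^2 pots under 5 cm of water in a hot house. It was compared with untreated pots 21 days after treatment.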
# bulrush [4] = assay: Test Example 4: low dosage test for rice paddy weeds; format: in vivo, Scirpus juncoides; settings: 300 g/ha as an active ingredient; plants treated at the one leaf stage; 21 days after treatment; vs untreated control
# Method in brief: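 Compound applied as a formulation at 300 g/ha to one-leaf bulrush grown in flooded clay loam (5 cm water) in a hot house. After 21 days, growth inhibition versus untreated plants rated on a 0–4 scale, with 4 meaning 90–100%.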
# false pimpernel [5] = assay: Test Example 2: herbicidal efficacy on rice paddy weeds post-emergence; format: in vivo, Lindernia pyxidaria; settings: dosage 1000 g/ha; post-emergence, one leaf stage; 21 days after treatment
# [6] = tested on: transplanted paddy rice plant and Bulrush; assay: Test Example 5: selectivity between transplanted paddy rice plant and weeds; format: in vivo; settings: (highest dosage with no phytotoxicity to paddy rice)/(lowest dosage with effective level 4 on Bulrush); rice 3000-100 g/ha, Bulrush 300-10 g/ha; 21 days
# Method in brief: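 Scoring ran 21 days after treatment in a hothouse on a 0–4 scale (4 = 90–100%, 3 = 70–89%, 2 = 40–69%, 1 = 1–39%, 0 = none) relative to untreated plants. Post-emergence bulrush received 10, 30, 100 and 300 g/ha active ingredient. Transplanted rice received 100, 300, 1000 and 3000 g/ha to assess crop injury.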
# false pimpernel [7] = assay: Test Example 1: herbicidal efficacy on rice paddy weeds pre-emergence; format: in vivo, Lindernia pyxidaria; settings: dosage 1000 g/ha, 21 days
SMILES,Bulrush post (herbicidal efficacy grade) (bulrush [1]),Bulrush pre (herbicidal efficacy grade) (bulrush [2]),Phytotoxicity to paddy rice [3],Burnyard grass post (herbicidal efficacy grade) (barnyard glass),Herbicide effect to Bulrush (bulrush [4]),False pimpernel post (herbicidal efficacy grade) (false pimpernel [5]),Selective Index [6],False pimpernel pre (herbicidal efficacy grade) (false pimpernel [7])
CCCCCOC(=O)N(c1ccccc1CN1CC(C)(C)OC1=O)S(=O)(=O)C(F)(F)F [1-92],4 (90%-100% of herbicidal efficacy or phytotoxicity),4 (90%-100% of herbicidal efficacy or phytotoxicity),3 (70%-89% of herbicidal efficacy or phytotoxicity),4 (90%-100% of herbicidal efficacy or phytotoxicity),4 (90%-100% of herbicidal efficacy or phytotoxicity),4 (90%-100% of herbicidal efficacy or phytotoxicity),30,4 (90%-100% of herbicidal efficacy or phytotoxicity)
CCC1(CC)CN(Cc2ccccc2N(C(=O)OCC(C)(C)C)S(=O)(=O)C(F)(F)F)C(=O)O1 [1-100],4 (90%-100% of herbicidal efficacy or phytotoxicity),4 (90%-100% of herbicidal efficacy or phytotoxicity),1 (1%-39% of herbicidal efficacy or phytotoxicity),4 (90%-100% of herbicidal efficacy or phytotoxicity),4 (90%-100% of herbicidal efficacy or phytotoxicity),4 (90%-100% of herbicidal efficacy or phytotoxicity),10,4 (90%-100% of herbicidal efficacy or phytotoxicity)
CC(C)COC(=O)N(c1ccccc1CN1CC(C(C)C)OC1=O)S(=O)(=O)C(F)(F)F (stereo not drawn) [1-32],4 (90%-100% of herbicidal efficacy or phytotoxicity),4 (90%-100% of herbicidal efficacy or phytotoxicity),0 (0% of herbicidal efficacy or phytotoxicity),4 (90%-100% of herbicidal efficacy or phytotoxicity),3 (70%-89% of herbicidal efficacy or phytotoxicity),4 (90%-100% of herbicidal efficacy or phytotoxicity),10,4 (90%-100% of herbicidal efficacy or phytotoxicity)
CCC1(CC)CN(Cc2ccccc2N(C(=O)OCC(C)C)S(=O)(=O)C(F)(F)F)C(=S)O1 [1-179],4 (90%-100% of herbicidal efficacy or phytotoxicity),4 (90%-100% of herbicidal efficacy or phytotoxicity),0 (0% of herbicidal efficacy or phytotoxicity),4 (90%-100% of herbicidal efficacy or phytotoxicity),4 (90%-100% of herbicidal efficacy or phytotoxicity),4 (90%-100% of herbicidal efficacy or phytotoxicity),33.3,4 (90%-100% of herbicidal efficacy or phytotoxicity)
"CC1(C)OC(=O)N(Cc2ccccc2NS(=O)(=O)C(F)(F)F)C1=O [Compound No. 1-187, 5,5-dimethyl-3-[2-(trifluoromethanesulfonylamino)benzyl]oxazolidine-2,4-dione]",4 (90%-100% of herbicidal efficacy or phytotoxicity),4 (90%-100% of herbicidal efficacy or phytotoxicity),3 (70%-89% of herbicidal efficacy or phytotoxicity),4 (90%-100% of herbicidal efficacy or phytotoxicity),4 (90%-100% of herbicidal efficacy or phytotoxicity),4 (90%-100% of herbicidal efficacy or phytotoxicity),≧10,4 (90%-100% of herbicidal efficacy or phytotoxicity)
CCCCC(CC)COC(=O)N(c1ccccc1CN1CC(C)(C)OC1=O)S(=O)(=O)C(F)(F)F (stereo not drawn) [1-68],4 (90%-100% of herbicidal efficacy or phytotoxicity),4 (90%-100% of herbicidal efficacy or phytotoxicity),1 (1%-39% of herbicidal efficacy or phytotoxicity),4 (90%-100% of herbicidal efficacy or phytotoxicity),4 (90%-100% of herbicidal efficacy or phytotoxicity),4 (90%-100% of herbicidal efficacy or phytotoxicity),10,4 (90%-100% of herbicidal efficacy or phytotoxicity)
CCC1(CC)CN(Cc2ccccc2N(C(=O)OCCOC)S(=O)(=O)C(F)(F)F)C(=O)O1 [1-134],4 (90%-100% of herbicidal efficacy or phytotoxicity),4 (90%-100% of herbicidal efficacy or phytotoxicity),1 (1%-39% of herbicidal efficacy or phytotoxicity),4 (90%-100% of herbicidal efficacy or phytotoxicity),4 (90%-100% of herbicidal efficacy or phytotoxicity),4 (90%-100% of herbicidal efficacy or phytotoxicity),10,4 (90%-100% of herbicidal efficacy or phytotoxicity)
CCOC(=O)N(c1ccccc1CN1CC(C)(C)OC1=O)S(=O)(=O)C(F)(F)F [1-80],4 (90%-100% of herbicidal efficacy or phytotoxicity),4 (90%-100% of herbicidal efficacy or phytotoxicity),2 (40%-69% of herbicidal efficacy or phytotoxicity),4 (90%-100% of herbicidal efficacy or phytotoxicity),4 (90%-100% of herbicidal efficacy or phytotoxicity),4 (90%-100% of herbicidal efficacy or phytotoxicity),30,4 (90%-100% of herbicidal efficacy or phytotoxicity)
CCC1(C)CN(Cc2ccccc2N(C(=O)OCC(C)C)S(=O)(=O)C(F)(F)F)C(=S)O1 (stereo not drawn) [1-181],4 (90%-100% of herbicidal efficacy or phytotoxicity),4 (90%-100% of herbicidal efficacy or phytotoxicity),1 (1%-39% of herbicidal efficacy or phytotoxicity),4 (90%-100% of herbicidal efficacy or phytotoxicity),4 (90%-100% of herbicidal efficacy or phytotoxicity),4 (90%-100% of herbicidal efficacy or phytotoxicity),10,4 (90%-100% of herbicidal efficacy or phytotoxicity)
CCOC(=O)N(c1ccccc1CN1CC(CC)(CC)OC1=O)S(=O)(=O)C(F)(F)F [1-97],4 (90%-100% of herbicidal efficacy or phytotoxicity),4 (90%-100% of herbicidal efficacy or phytotoxicity),1 (1%-39% of herbicidal efficacy or phytotoxicity),4 (90%-100% of herbicidal efficacy or phytotoxicity),4 (90%-100% of herbicidal efficacy or phytotoxicity),4 (90%-100% of herbicidal efficacy or phytotoxicity),30,4 (90%-100% of herbicidal efficacy or phytotoxicity)
CC1COC(=O)N1Cc1ccccc1NS(=O)(=O)C(F)(F)F (stereo not drawn) [1-3],4 (90%-100% of herbicidal efficacy or phytotoxicity),4 (90%-100% of herbicidal efficacy or phytotoxicity),4 (90%-100% of herbicidal efficacy or phytotoxicity),4 (90%-100% of herbicidal efficacy or phytotoxicity),4 (90%-100% of herbicidal efficacy or phytotoxicity),4 (90%-100% of herbicidal efficacy or phytotoxicity),3.3,4 (90%-100% of herbicidal efficacy or phytotoxicity)
CC(C)COC(=O)N(c1ccccc1CN1CC2(CCC2)OC1=O)S(=O)(=O)C(F)(F)F [1-86],4 (90%-100% of herbicidal efficacy or phytotoxicity),4 (90%-100% of herbicidal efficacy or phytotoxicity),1 (1%-39% of herbicidal efficacy or phytotoxicity),4 (90%-100% of herbicidal efficacy or phytotoxicity),4 (90%-100% of herbicidal efficacy or phytotoxicity),4 (90%-100% of herbicidal efficacy or phytotoxicity),10,4 (90%-100% of herbicidal efficacy or phytotoxicity)
